{
  "source": "patent US20260306526A1",
  "about": "“COMBINATION THERAPY FOR BACTERIAL INFECTIONS COMPRISING ZINC-CHELATOR, BETA-LACTAM ANTIBIOTIC AND SERINE BETA-LACTAMASE INHIBITOR” (priority 2023, published 2026)",
  "key": {"[1]": {"tested_on": "K. pneumoniae K66-45 (NDM-1)", "experiment": "MIC determination of meropenem with zinc chelator at varying zinc concentrations in the medium (Example 31)", "type": "cell-based, Klebsiella pneumoniae", "experimental": "An experiment was conducted to determine the Minimal Inhibitory Concentration (MIC) of meropenem (MEM) in combination with the zinc chelator according to Example 26 of WO 2018/033719 at varying concentrations of zinc in the medium. The medium was a Mueller Hinton broth from Thermo Fischer. The zinc content was measured as 5.6 μM using ICP-MS. The concentration of zinc in the plasma of healthy animals has been determined to be close to this value. In infectious tissue, the zinc concentration is below the limit of detection (see, for example Bilinskaya et al., Am. Soc. For Microbiology (2020), 58, pages 1-8). Zinc sulfate was then added to this broth to obtain three further concentrations: 15.6 μM, 25.6 μM and 35.6 μM of zinc, keeping all other parameters constant.\nAs a model bacterial strain for this experiment, the MIC of MEM vs. K. pneumoniae K66-45 (NDM-1) was then determined in broth containing the four concentrations of zinc following the protocol given in Example 1. The EUCAST MIC value for MEM alone (EUCAST: standardization organization for MIC values of antibiotics) is 4-8 μM, meaning that if a bacterial strain is inhibited at lower concentrations than the MIC value, the bacterial strain is sensitive(S) to MEM. Correspondingly, if the bacterial strain is not inhibited at MIC or lower, the strain is resistant (R). If the inhibition is within the MIC range 4-8 μM, the resistance is intermediate (I)."}, "[2]": {"tested_on": "Klebsiella pneumoniae K66-45", "experiment": "MIC determination, fixed ratio of sBLI to antibiotic (Examples 2-4)", "type": "cell-based", "details": "Example 2; with MEM and AVI (fixed ratio); NDM-1; caMHB, 29.4 μM Zn2+", "experimental": "Antimicrobial susceptibility testing (AST) by broth microdilution (MIC determination) was performed according to The European Committee on Antimicrobial Susceptibility Testing (EUCAST) guidelines (see Reading guide for broth microdilution Version 5.0, 2024: https://www.eucast.org).\nSterile clear round bottom polystyrene (non-treated) 96-well microplates (Corning 3788) were used for making serial two-fold dilutions of the antibiotic and the sBLI in cation-adjusted Mueller Hinton II broth (caMHB; Thermo Scientific, T3462, containing 29.4 μM Zn^2+), across the columns of the microtiter plate (256-0.06 μg/mL; columns 1-12). The checkerboard plates were all made by keeping the sBLI at a fixed ratio relative to antibiotic (absolute concentrations of each, in μg/mL) to all wells containing sample in each plate. Additionally, a set of samples was included in each test plate, where the zinc chelator was added, at various fixed concentrations, of 16 μg/mL, 8 μg/mL and/or 4 μg/mL (as specified in each Example). All sample wells contained growth medium (caMHB), and inoculated bacteria at a final inoculum between 3-7×10^5 CFU/mL. […]"}, "[3]": {"tested_on": "many strains of Acinetobacter baumannii", "details": "with MEM; cited from earlier work"}},
  "note": "“And” between values parts separate entries of the source, which are not always exact repeats. Equal values may be shown once.",
  "data": [
    {"molecule": "CN(C[C@H](O)[C@@H](O)[C@H](O)[C@H](O)CO)C(=O)c1ccc(CN(Cc2ccccn2)Cc2ccccn2)nc1", "note": "[zinc chelator]", "values": [
      {"measurement": "sensitivity of the strain", "setting": "[1]; printed: \"at 4-8 μM when used tested at a concentration 4 μM\", with MEM", "value": "sensitive"},
      {"measurement": "effect against the bacterial strain", "setting": "[1]; zinc chelator 16 μM with MEM, highest concentration of zinc (35.6 μM)", "value": "ineffective"},
      {"measurement": "Synergy with the zinc chelator observed at concentration", "setting": "[2]", "value": "16 µg/mL and 8 µg/mL"},
      {"measurement": "effect of combination", "setting": "[3]", "value": "poor effect"}
    ]}
  ]
}
